Measurements as given in US12551474B2, “Use of pridopidine for the treatment of fragile X syndrome” (PRILENIA NEUROTHERAPEUTICS LTD., priority 2017, dated 2026).
Read-outs that look alike come from different tables or passages of the source.

How the values were obtained:
[1] = tested on: FXS neurons; test: neurite outgrowth in FXS neurons with genetic or pharmacological inactivation of S1R; type: cell-based, human
Source text: To investigate whether the rescue of neurite outgrowth deficits in FXS neurons following pridopidine treatment is mediated via sigma-1 receptor (S1R), virally-delivered Cas9 was used to target and inactivate S1R in FXS NPC prior to neuronal differentiation. Effective inactivation of S1R gene and loss of its protein product was confirmed by western blot (FIG. 6A).
The effect of a pharmacological inhibitor of S1R on pridopidine-mediated neurite outgrowth improvements in FXS neurons was further tested.

[2] = tested on: rat striatum; settings: transcriptomic analysis; cited from earlier work
[3] = tested on: human FXS neurons; settings: 8-day period, vs DMSO
Source text: Control cells used were a human Embryonic Stem (ES) cell line.
FIG. 2A upper panels show MAP2/Tuj-1/DNA immunostaining; lower panels show GABA/NeuN/DNA immunostaining.
Neurite growth is a surrogate of neuronal development and maturation.
Open squares show data from DMSO treated FXS neurons.

[4] = tested on: human patients afflicted with FXS; settings: periodic (daily or twice daily) oral administration, pediatric or adult patients
[5] = tested on: Q175 knock-in (Q175 KI) HD mouse model; settings: cited from earlier work
[6] = tested on: neuroblastoma cell line; settings: S1R-dependent; cited from earlier work
[7] = tested on: human patients afflicted with a FXS related disorder; settings: periodic (daily or twice daily) oral administration, pediatric or adult patients
Protocol: The human patients are pediatric patients or adult patients.
A pridopidine composition as described herein is administered orally to a subject suffering from a FXS related disorder.

| Structure (SMILES) | effect on pridopidine-mediated neurite outgrowth improvement in FXS neurons ([1]; co-administration of NE-100 (1 μM) with pridopidine) | expression of BDNF, D1R, GR and Akt/PI3K pathways [2] | neurite growth in FXS neurons ([3]; 1 uM pridopidine) | neurite growth in FXS neurons ([3]; 5 uM pridopidine) | treatment of FXS [4] | gene expression profile versus HD disease gene expression profile [5] | secretion of BDNF [6] | treatment of a FXS related disorder [7] | neurite outgrowth in FXS neurons ([1]; 100 nM pridopidine for 24 hrs) | improvement in neurite outgrowth in FXS neurons in which S1R was inactivated (S1RKO) ([1]; 100 nM pridopidine for 24 hrs, S1RKO (Cas9)) |
| --- | --- | --- | --- | --- | --- | --- | --- | --- | --- | --- |
| CCCN(CCC)CCc1ccc(OC)c(OCCc2ccccc2)c1 [NE-100, reference compound] | blocked the effect of pridopidine |  |  |  |  |  |  |  |  |  |
| CCCN1CCC(c2cccc(S(C)(=O)=O)c2)CC1 [pridopidine, 4-[3-(methylsulfonyl)phenyl]-1-propyl-piperidine] |  | activates expression | significant improvement in neurite growth | significant improvement in neurite growth | effective | reversed pattern | enhances secretion | effective | improvement in neurite outgrowth | abolished |
